Measured values from patent US12565514B2, “Nucleic acid containing perfluoroalkyl group, and method for its production” (AGC Inc., priority 2019, dated 2026).
{C5-PFC} = N[C5-PFC] unit carrying a C5 perfluoroalkyl group, added by phosphoramidite

tested on: HeLa cells; assay: Cellular uptake of fluorescein-modified nucleic acids by flow cytometry; format: cell-based; details: single-stranded nucleic acid with fluorescein at 3′-end, 2.5 μM in DMEM, incubated 4 or 24 hours
Protocol: HeLa cells were cultured in Dulbecco's modified Eagle's medium (DMEM, Thermo Fischer Scientific) supplemented with 10% FBS and 0.5% penicillin/streptomycin in a humidified atmosphere (5 volume % CO2) at 37° C. Cells for image analysis were cultured in a 35 mm glass bottom dish (manufactured by IWAKI).
HeLa cells were seeded in 12-well plates at a density of 10^5 cells/well and cultured. On the day after seeding, the medium in each well was replaced with DMEM medium (1 mL) containing DNA (2.5 μM) modified with fluorescein-bound N[PFC] or N[PFPE], and incubated for 4 or 24 hours. Then, the cell layer in the wells was washed twice with PBS, and the cells were detached by treatment with 0.05% (w/v) trypsin (200 μL) at 37° C. for 5 min. The recovered cells were suspended in DMEM (600 μL). The cell suspension was separated by centrifugation process (400G, 3 min), and PBS/1% BSA (500 μL) was added. The percentage of fluorescent cells and the average fluorescence intensity of this cell suspension were analyzed by a flow cytometer (“guava easyCyte8”, manufactured by Luminex).
In the case of double-stranded DNA, a sample was denatured at 100° C. and annealed by slowly bringing it down to room temperature.
The nucleic acid having fluorescein bonded to the 3′-end of the N[C8-PFC]-modified DNA synthesized in Example 2 was, as a single strand or as a double strand, added to the culture medium of HeLa cells and incubated, whereby the efficiency of cellular uptake was examined by flow cytometry.
The nucleic acid having fluorescein bonded to the 3′-end of the N[C5-PFPE]-modified DNA synthesized in Example 1 was, as a single strand, added to the culture medium of HeLa cells and incubated, whereby the efficiency of cellular uptake was examined by flow cytometry.

Substance | cellular uptake (flow cytometry)
5′-(N[C5-PFC])2TTTTTCAGTTGACCATATA-3′ [F2] | higher cellular uptake than the fluorescein-modified nucleic acid of cont-DNA
5′-(N[C5-PFC])5TTTTTCAGTTGACCATATA-3′ (DNA, 5' {C5-PFC}-{C5-PFC}-{C5-PFC}-{C5-PFC}-{C5-PFC}, backbone not given here) [F5] | higher cellular uptake than the fluorescein-modified nucleic acid of cont-DNA
5′-(N[C5-PFC])TTTTCAGTTGACCATATA-3′ (DNA, 5' {C5-PFC}, backbone not given here) [F1] | no difference from the fluorescein-modified nucleic acid of cont-DNA
